According to patent US20210330611A1, “THERAPY FOR NEUROLOGICAL DISEASES/DISORDERS” (priority 2020, published 2021):
Where a name gives a salt, the structure may show the parent alone. Read-outs that look alike come from different tables or passages of the source.

Tests used:
[1] = tested on: fibrin-induced microglia activation; assay: Image-based assay of fibrin-induced microglia activation (HTS and dose response); type: cell-based, rat; conditions: primary microglia HTS, fibrin stimulation; for inhibition at 10 µM: Rattus norvegicus, Microglia, read-out: Fibrin % inhibition
[2] = tested on: LPS-induced microglia activation; assay: Image-based assay of LPS-induced microglia activation (HTS and dose response); type: cell-based, rat; conditions: for inhibition at 10 µM: Rattus norvegicus, Microglia, read-out: LPS % inhibition
[3] = tested on: fibrin- and LPS-induced microglia activation; assay: cells; type: cell-based, rat
[4] = tested on: primary rat microglia
[5] = tested on: primary rat microglia; assay: Cell toxicity (dead cells, size <150 μm2) in coated fibrin (cFib) assay; conditions: primary microglia HTS;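 further: share of dead cells sized under 150 µm2 at 10 µM in fibrin-stimulated microglia HTS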
[6] = primary microglia HTS, LPS stimulation, compounds at 10 μM
[7] = quadrant by fibrin and LPS inhibition, HTS at 10 μM
[8] = fibrin assay, dead cells (size <150 μm2)
[9] = classification by fibrin and LPS inhibition, HTS at 10 μM
[10] = fibrin assay, dead cells (size <150 μm2), compounds at 10 μM
[11] = cell size >800 μm2 as marker of activation
[12] = classification by fibrin and LPS inhibition in HTS
[13] = fibrin stimulation, cell size <150 μm2 as marker of toxicity

| Structure (SMILES) | Fibrin % inhibition ([1]; compounds at 10 μM) | LPS % inhibition [2, 6] | Quadrant (FIG. 5b) [3, 7] | LPS % cell toxicity [4] | Fibrin % cell toxicity [5, 8] | inhibition at 10 µM ([1]; compounds at 10 μM) | inhibition at 10 µM [2, 6] | LPS % cell toxicity ([4]; rat) | Quadrant (FIG. 5b) [3, 9] | Fibrin % cell toxicity [5, 10] | inhibition at 10 µM [1, 11] | inhibition at 10 µM ([2]; 48 h) | Quadrant (FIG. 5b) [3, 12] | Fibrin % cell toxicity [5, 13] |
| --- | --- | --- | --- | --- | --- | --- | --- | --- | --- | --- | --- | --- | --- | --- |
| COc1cc2nc(N(C)CCCNC(=O)C3CCCO3)nc(N)c2cc1OC.Cl (stereo not shown) [Alfuzosin Hydrochloride, Alfuzosin] | 1% | 18% | Q4 | 0% | 1% |  |  |  |  |  |  |  |  |  |
| Nc1ccc2cc3ccc(N)cc3nc2c1 [Proflavine] |  |  | Q2 |  | 82% | 113% | 132% | 59% |  |  |  |  |  |  |
| [N-]=[N+]=CC(=O)OC[C@H](N)C(=O)O [Azaserine] |  |  | Q4 |  | 1% | 8% | 2% | 0% |  |  |  |  |  |  |
| CCC(=O)O[C@H]1[C@H](O[C@@H]2[C@@H](C)[C@H](O[C@H]3C[C@@](C)(OC)[C@@H](O)[C@H](C)O3)[C@@H](C)C(=O)O[C@H](CC)[C@@](C)(O)[C@H](O)[C@@H](C)C(=O)[C@H](C)C[C@@]2(C)O)O[C@H](C)C[C@@H]1N(C)C [Erythromycin Propionate] |  |  |  |  |  | 23% | 27% | 0% | Q4 | 1% |  |  |  |  |
| CC(=O)CC(c1ccc([N+](=O)[O-])cc1)c1c(O)c2ccccc2oc1=O (stereo not shown) [Acenocoumarol, Acenocoumarin] | −38% | 14% | Q4 | 0% | 0% |  |  |  |  |  |  |  |  |  |
| C#CCN(C)Cc1ccccc1 [Pargyline] |  |  |  |  |  |  |  | 0% |  |  | -25% | 11% | Q4 | 1% |
| N=C(N)N1CCc2ccccc2C1 [Debrisoquin] |  |  |  |  |  | 8% | 17% | 0% | Q4 | 1% |  |  |  |  |
| CC(=O)Oc1c(C)cccc1C(=O)O [Cresopyrine, Cresopirine] | 13% | 15% |  | 1% |  |  |  |  | Q4 | 1% |  |  |  |  |
| CCN(CC)CCOC(=O)C(c1ccccc1)c1ccccc1 [Adiphenine Hydrochloride] |  |  | Q4 |  | 1% | -30% | 12% | 0% |  |  |  |  |  |  |
| C[N+](C)(C)CCCCCCCCCC[N+](C)(C)C [Decamethonium] |  |  |  |  |  | 1% | 17% | 0% | Q4 | 0% |  |  |  |  |
| Oc1c(I)cc(I)c2cccnc12 [Diiodohydroxyquinoline] |  |  |  |  |  | -6% | 22% | 0% | Q4 | 1% |  |  |  |  |
| C[C@]12CC[C@@H]3c4ccc(O)cc4CC[C@H]3[C@@H]1CC[C@@H]2OC(=O)CCC1CCCC1 [Estradiol Cypionate] |  |  |  |  |  | -25% | 8% | 0% | Q4 | 0% |  |  |  |  |
| NC[C@H]1O[C@H](O[C@H]2[C@H](O)[C@@H](O[C@H]3O[C@H](CO)[C@@H](O)[C@H](N)[C@H]3O)[C@H](N)C[C@@H]2N)[C@H](N)[C@@H](O)[C@@H]1O.O=S(=O)(O)O [Becanamycin Sulfate, Bekanamycin Sulfate] | −10% | 16% | Q4 | 0% | 1% |  |  |  |  |  |  |  |  |  |
| O=C1c2ccccc2C(=O)C1c1ccccc1 [Phenindione] |  |  |  |  |  |  |  | 0% |  |  | -10% | 0% | Q4 | 1% |
| Cc1ncc([N+](=O)[O-])n1CC(C)O (stereo not shown) [Secnidazole] |  |  |  |  |  |  |  | 2% |  |  | -24% | 22% | Q4 | 1% |
| O=C(N/N=C/c1ccc([N+](=O)[O-])o1)c1ccc(O)cc1 [Nifuroxazide] |  |  | Q2 |  | 6% | 112% | 120% | 14% |  |  |  |  |  |  |
| O=C(Oc1ccccc1C(=O)O)c1ccccc1O [Salsalate] |  |  |  |  |  |  |  | 1% |  |  | -22% | 14% | Q4 | 1% |
| O=C(Oc1cccc2cccnc12)c1ccccc1 [Benzoxiquine] |  |  | Q4 |  | 1% | -2% | 14% | 0% |  |  |  |  |  |  |
| Cc1ncc(CSSCc2cnc(C)c(O)c2CO)c(CO)c1O [Pyritinol] |  |  |  |  |  |  |  | 0% |  |  | -15% | 4% | Q4 | 1% |
| Nc1ccc(/N=N/c2ccccc2)c(N)n1 [Phenazopyridine] |  |  |  |  |  |  |  | 0% |  |  | 9% | 6% | Q4 | 0% |
| CCCN1C[C@H](CSC)C[C@@H]2c3cccc4[nH]cc(c34)C[C@H]21 [Pergolide] |  |  |  |  |  |  |  | 0% |  |  | -18% | 16% | Q4 | 0% |
| Cn1c([N+](=O)[O-])cnc1COC(N)=O [Ronidazole] |  |  |  |  |  |  |  | 0% |  |  | 31% | 20% | Q4 | 1% |
| C/C=C(/C(=C/C)c1ccc(O)cc1)c1ccc(O)cc1 [Dienestrol] |  |  |  |  |  | 17% | 21% | 0% | Q4 | 1% |  |  |  |  |
| CC(CN1c2ccccc2Sc2ccccc21)N(C)C (stereo not shown) [Promethazine] |  |  |  |  |  |  |  | 0% |  |  | -30% | 5% | Q4 | 0% |
| CN(C)CCc1c[nH]c2ccc(Cn3cncn3)cc12 [Rizatriptan] |  |  |  |  |  |  |  | 0% |  |  | -9% | 10% | Q4 | 1% |
| CN(C)[C@@H]1C(O)=C(C(=O)NCN2CCCC2)C(=O)[C@@]2(O)C(O)=C3C(=O)c4c(O)cccc4[C@@](C)(O)[C@H]3C[C@@H]12 [Rolitetracycline] |  |  |  |  |  |  |  | 0% |  |  | 4% | 9% | Q4 | 1% |
| CC(=O)OC1CN2CCC1CC2.Cl (stereo not shown) [Aceclidine Hydrochloride, Aceclidine] | 2% | 0% | Q4 | 0% | 1% |  |  |  |  |  |  |  |  |  |
| CN(C)CCOC(C)(c1ccccc1)c1ccccn1 (stereo not shown) [Doxylamine] |  |  |  |  |  | -45% | 17% | 0% | Q4 | 1% |  |  |  |  |
| Cc1ccccc1N1CCN(CCc2nnc3n2CCCC3)CC1 [Dapiprazole] |  |  |  |  |  | -9% | 14% | 0% | Q4 | 1% |  |  |  |  |
